Assay results published in paper PMC4147338, “Host defense peptides for treatment of colorectal carcinoma – a comparative in vitro and in vivo analysis” (Oncotarget, 2014).

What was measured:
Assay type in all cases: cell-based, human
[1] = tested on: HCT116 cells; experiment: Calcein-AM cell viability staining, 24h; details: HCT116, 24h, 0.25-12.5 μM
Experimental: (§1) Figure 4 HDP-mediated cytotoxicity towards tumor cells Quantitative analysis of direct cytotoxicity towards tumor cells following a 24h incubation period with increasing HDP concentrations. Viability was assessed using Calcein-AM staining. Remaining viable tumor cells were quantified in comparison to untreated controls, which were set to be =1. […] Values are given as the mean x-fold increase ± SD. *p<0.05 vs. NK11; **p<0.01 vs. NK11.
(§2) This assay is based on Calcein-acetoxymethylester (Calcein-AM; Invitrogen, Darmstadt, Germany) staining to detect viable cells within a culture. Tumor and normal (PBL) cells (1-2 × 10^4 cells/well in triplicates) were seeded in 96-well plates and incubated overnight. Thereafter, peptides were added in increasing concentrations (ranging from 0.25 μM – 12.5 μM). Untreated cells served as living cell control. Medium was removed after 1h or 24h, respectively. Calcein-AM ([…]) was added and incubated for 30 min (37°C, 5% CO2). Analysis was performed on a fluorescence multi-well plate reader (Tecan Infinite® M200, Crailsheim, Germany) at an excitation wavelength of 485 nm (emission 535 nm). For estimation of cell viability, the relative fluorescence intensities of Calcein-AM-stained non-treated cells (=live control) were set to be 1, and fluorescence intensities of samples were calculated. Data of at least three independent experiments each performed in […] are given.

[2] = tested on: HROC24 cells; experiment: Calcein-AM cell viability staining, 24h; details: HROC24, 24h, 0.25-12.5 μM
Experimental: as §1, §2

[3] = tested on: HROC18 cells; experiment: Apoptosis/necrosis assay, YO-PRO-1/PI flow cytometry; details: HROC18, 24h; for total killing: background cell death subtracted
Experimental: (§3) Figure 5 Apoptosis/necrosis assay and Western blot analysis (A, B) HROC18 and HROC24 cells were exposed to increasing HDP concentrations for a period of 24 hours. Tumor cells were stained with YO-PRO-1 for detecting early and late apoptotic tumor cells. Prior to flow cytometric analysis, PI was added to detect necrotic cells, as well. (A) Representative dot plots showing HDP-treated HROC24 cells at a concentration of 5 μM. Lower right quadrant: early apoptotic cells; upper right quadrant: late apoptotic cells; upper left quadrant: necrotic cells. (B) For cell death quantification, values of background cell death (=untreated controls) were subtracted from values of HDP-treated cells. Left panel: HROC24 cell; right panel: HROC18 cells. (C, E) Representative western blot results showing HDP-treated HROC24 cells (20 μg of total protein per lane). (D, F) Quantitative analysis of BAX and HSP90 expression in HDP-treated cells was done as described in material & methods. Expression levels of untreated cells were set to be =1 and x-fold increases of HDP-exposed cells were calculated. […] Values are given as mean ± SD.
(§4) Cell death was quantified by YO-PRO-1 (Invitrogen) and PI double staining. Selected tumor cells (HROC24 and HROC18, 1 × 10^4 cells/well) were seeded in 24-well plates and incubated overnight. Thereafter, peptides were added in increasing concentrations (ranging from 0.25 μM – 12.5 μM). Untreated cells served as living control. Following a 24-hour incubation period, supernatants were collected; cells were trypsinized and washed in PBS. Cells were stained with YO-PRO-1 (final concentration: 0.2 μM) for 20 min at room temperature. Prior to flow cytometric analysis, PI was added at a final concentration of 100 μg/ml. For cell death quantification, values of background cell death (=untreated controls) were subtracted from values of HDP-treated cells.

[4] = tested on: HROC24 cells; experiment: as above; details: for Levels of viable HROC24 cells: 24h, higher concentrations
Experimental: as §3, §4

[5] = tested on: HROC107 cells; experiment: Calcein-AM cell viability staining, 24h; details: HROC107, 24h, 0.25-12.5 μM
Experimental: as §1, §2

[6] = tested on: HROC113 cells; experiment: Calcein-AM cell viability staining, 24h; details: HROC113, 24h, 0.25-12.5 μM
Experimental: as §1, §2

[7] = tested on: HROC60 cells; experiment: Calcein-AM cell viability staining, 24h; details: HROC60, 24h
Experimental: as §1, §2

[8] = tested on: CRC tumor cell lines; experiment: Calcein-AM cell viability staining, short-term exposure (1h); details: 0.25-12.5 μM, three separate experiments
Experimental: According to our classification, we included three PS^high (HCT116, HROC18, and HROC24), three PS^int (HROC40, HROC60, and HROC113), and two PS^low (HROC32 and HROC107) surface-exposed cell lines.
Figure 3 Short-term exposure of HDPs towards tumor cells (A) Representative pictures showing morphological changes in HROC24 cells upon HDP C7A-D21K exposure (25 μM). As a control, HROC24 cells were treated with NK11 (25 μM). (B) Quantitative analysis of direct cytotoxicity towards tumor cells. Tumor cells were treated for 1h with increasing HDP concentrations. Thereafter, viability was assessed using Calcein-AM staining. Remaining viable tumor cells were quantified in comparison to untreated controls, which were set to be =1. […] Values are given as the mean x-fold increase ± SD, *p<0.05 vs. NK11; **p<0.01 vs. NK11.
(§5) This assay is based on Calcein-acetoxymethylester (Calcein-AM; Invitrogen, Darmstadt, Germany) staining to detect viable cells within a culture. […] Analysis was performed on a fluorescence multi-well plate reader (Tecan Infinite® M200, Crailsheim, Germany) at an excitation wavelength of 485 nm (emission 535 nm). For estimation of cell viability, the relative fluorescence intensities of Calcein-AM-stained non-treated cells (=live control) were set to be 1, and fluorescence intensities of samples were calculated. […]

[9] = tested on: peripheral blood lymphocytes (PBL); experiment: Lymphotoxicity, Calcein-AM viability of PBL; details: PBL of six healthy donors, 24h, 0.25-12.5 μM
Experimental: Figure 6 Hemolysis and lymphotoxicity assays (A) Hemolytic activity of HDPs was determined by hemoglobin release from whole blood cells after 120 min incubation. Negative controls were left untreated whereas positive controls (=maximum lysis) were treated with 1% SDS. Hemolytic activity was quantified as described in the material and methods section. (B) PBLs were incubated in the presence of increasing HDP concentrations for a period of 24 hours. Viability was analyzed using Calcein-AM and quantified in comparison to untreated controls, which were set to be =1. […] Experiments were performed in triplicates. Values are given as the mean x-fold increase ± SD.
CRC cell lines HROC18, HROC24, HROC32, HROC40, HROC57, HROC60, HROC69, HROC80, HROC87, HROC107, and HROC113 were established in our lab from patients subsequent to surgical resection. […]
as §5

In the case of “KILRGVAKKIMRTFLRRISKDILTGKK [Peptide C7A, NK-2 derivative, Cys7 replaced with Ala]”, the “Lytic activity towards tumor cells” value [1] is reported as “as effective as the reference compound Mellitin”, the “Lytic activity towards tumor cells” value [2] is reported as “as effective as the reference compound Mellitin” and the total killing [3] is reported as “up to 60%”. The “Levels of viable HROC24 cells” value [4] was 25%.

With “KILRGVAKKIMRTFLRRISKKILTGKK [Peptide C7A-D21K, C7A with Asp21 substituted by Lys]” the “Lytic activity towards tumor cells” value [1] was “as effective as the reference compound Mellitin”, the “Killing of tumor cells / viability” value [5] was “most effective in killing these tumor cells” and the “Killing of tumor cells / viability” value [6] was “most effective in killing these tumor cells”. The “Lytic activity towards tumor cells” value [2] was “as effective as the reference compound Mellitin”, the lysis vs. control [7] was greater than 40% and the “Tumor killing, ranking” value [3] was “the most effective one and even slightly better than Melittin”. The total killing [3] was 74%, the “Levels of viable HROC24 cells” value [4] was 17% and the “Tumor killing compared with Melittin” value ([4]; HROC24, 24h) was “as effective in tumor killing as Melittin”.

In the case of “KISKRILTGKK [NK11, non-toxic control peptide based on NK-2, reference compound]”, the “Direct cytotoxicity / tumor cell lysis after short-term exposure” value [8] is reported as “lack of NK11-mediated tumor cell lysis” and the Lymphocyte viability [9] is reported as “did not affect lymphocyte viability”.
